{"source": "patent US7301020B2", "about": "“Macrolide analogs and methods for identifying same” (priority 2003, dated 2007)", "key": {"[1]": {"target": "T1, F-actin (Oryctolagus cuniculus, UniProt P68135)", "T1 construct": "F-actin is purified from rabbit skeletal muscle using a standard protocol; Prodan (Acrylodan) fluorophore on Cys374 (in the fluorescence spectra); from tissue; host or cells: rabbit skeletal muscle", "experiment": "KabC binding to and severing of Prodan-F-actin (fluorescence spectra, SDS-PAGE of supernatant and pellet)", "type": "biochemical, rabbit", "description": "FIG. 6: Fluorescence emission spectra of 5 μM Prodan-F-actin in the absence (a), and after selected times following the addition of KabC to 5 μM: (b), immediately after the addition of KabC (the emission spectrum is acquired in 30 seconds); (c), 15 min; (d), 39 min; (e), The spectrum of an equivalent concentration of the KabC-Prodan-G-actin complex. Inset: SDS-PAGE Analysis of KabC binding to F-actin. 100 μL of F-actin (10 μM) in […] was treated each with KabC (a: 0; b: 1; c: 4; d: 10 μM) for 30 min and airfuged at 120,000 g for another 30 min. Supernatant (S) and pellet (P) of each sample was run on SDS-PAGE.\nF-actin: F-actin is purified from rabbit skeletal muscle using a standard protocol developed in the PI's laboratory (Marriott et al, 1988). The purity and activity of actin is analyzed using SDS-PAGE, polymerization assays and a motility assay (Heidecker et al, 1995).\nThe fluorescence emission of Prodan-F-actin is also immediately quenched upon adding KabC ([…]). However, a particularly attractive feature of the Prodan-actin probe is that the average energy of the fluorescence emission changes appreciably following the binding of ABPs, macrolides and in the transition of F-actin to G-actin. Careful analysis of the spectrum can yield information on the relative amounts of up to 4 different states in equilibrium (Marriott et al, 1988). This feature is useful to help understand how KabC binds to Prodan-F-actin. The addition of an equimolar amount of KabC to Prodan-F-actin leads to an immediate decrease in the fluorescence quantum yield, which is followed by a far slower red-shift in the average energy of the emission spectrum over time. […] In this experiment, the monomeric actin (supernatant, S) and F-actin (pellet, P) fractions of KabC treated F-actin are separated after a 60-minute incubation by high-speed centrifugation (120,000 g) and quantified by Coumassie staining of the acrylamide gel. […]"}, "[2]": {"target": "Prodan-G-actin (Oryctolagus cuniculus, UniProt P68135)", "experiment": "Kinetic analysis of binding to Prodan-G-actin (stopped-flow and slow phase)", "parameters": "F-actin is purified from rabbit skeletal muscle using a standard protocol; Prodan (Acrylodan) fluorophore, chemical label on the thiol of Cys374; from tissue; host or cells: rabbit skeletal muscle; species or system rabbit", "description": "FIG. 3: Kinetic analyses of KabC binding of Prodan labeled G-actin. (A-B). Prodan-actin (0.1 μM) and KabC, loaded into separated syringes, were rapidly mixed within ˜1 msec dead-time. The concentrations of KabC were 0.0 μM (a), 1.0 μM (b), 1.5 μM (c), 2.0 μM (d) and 2.5 μM (data not shown), respectively. The decreases in emission intensity were well fitted with single exponential functions to determine the observed rate, kobs. The observed rates are plotted as a function of the [KabC] in panel (B).\nKinetic analysis of binding reactions. The kinetics of the KabC interaction with Prodan-actin is determined, using an Applied Photophysics SX.18MV Stopped-flow spectrometer, by following the decrease in the emission intensity of Prodan-actin at 25° C. Prodan was excited at 385 nm and emission was collected with a 470 nm (+/−5 nm) band-pass filter. In all cases the decrease in emission intensity was best fit with a single exponential function, which was then used to determine the observed rate, kobs. Kinetic constants of on rate (kon) and off rate (koff) were calculated according to the following equation: kobs=kon[KabC]+koff. The kinetics of the slower binding step observed in the interaction of KabC with Prodan-G-actin interaction is measured by measuring the ratio of fluorescence signals at 465 nm and 530 nm. The decay of this ratio is fit using a single exponential rate."}, "[3]": {"target": "T2, G-actin (Oryctolagus cuniculus, UniProt P68135)", "T2 construct": "F-actin is purified from rabbit skeletal muscle using a standard protocol; from tissue; host or cells: rabbit skeletal muscle", "experiment": "Prodan-actin polymerization assay", "type": "biochemical, rabbit", "settings": "stoichiometric binding conditions", "description": "FIG. 5: Time course for G-actin polymerization. Prodan-labeled G-actin is mixed to a final concentration of 5 μM with a pre-formed complex of G-actin-KBC at the following concentrations: a: 0 nM; b: 1 nM; c: 5 nM; d: 10 nM; e: 20 nM; f: 50 nM; g: 250 nM) and the polymerization reaction initiated by the addition of KCl and MgCl2 to 0.1 M and 2 mM respectively at 20°. Excitation at 385 nm and Emission at 465 nm.\nProdan-Actin Polymerization assay The fluorescence emission spectrum of a 5 μM solution of Prodan-labeled G-actin is recorded in G-buffer. Polymerization is initiated by adding KCl and MgCl2 to 100 mM and 2 mM respectively and the time course of the reaction is monitored continuously over a 60-minute period time by recording the emission intensity at 465 nm. In other experiments the progress of actin polymerization is determined by recording the Prodan-actin emission spectrum at defined times during the reaction.\nThe G-actin-KabC complex inhibits actin polymerization by capping the (+)-end of the filament. […] Adding KCl and MgCl2 to 100 mM and 2 mM respectively polymerizes this G-actin mixture and the progress of the reaction is monitored by the increase in Prodan-actin fluorescence at 465 nm (FIG. 5; Marriott et al, 1988). […]"}}, "note": "Values joined by “and” are separate entries in the source; they are usually repeats but may differ in a detail not shown here. Equal values may be shown once."}
{"substance": "Kabiramide C [KabC]", "values": [{"measurement": "F-actin severing", "setting": "[1]", "result": "single and slow severing event"}, {"measurement": "actin fraction by SDS-PAGE after centrifugation", "setting": "[1]; F-Actin:KabC 10:1 and 5:2", "result": "a significant fraction of the total actin exists as F-actin"}, {"measurement": "depolymerization of F-actin", "setting": "[1]; sub-stoichiometric KabC (1/10th)", "result": "not depolymerized"}, {"measurement": "binding steps in reaction with G-actin", "setting": "[2]", "result": "two-step reaction"}, {"measurement": "koff", "setting": "[2]; Prodan-actin 0.1 μM, Y-intercept of kobs vs [KabC]", "result": 5.6, "unit": "s⁻¹"}, {"measurement": "kon", "setting": "[2]; Prodan-actin 0.1 μM, slope of kobs vs [KabC]", "result": "5.45e+07", "unit": "M⁻¹ s⁻¹"}, {"measurement": "rate of second, slower phase of G-actin binding", "setting": "[2]; decrease at 465 nm relative to red edge", "result": "0.008 s⁻¹ and 0.005 s⁻¹"}, {"measurement": "rate of primary binding event", "setting": "[2]; fluorescence quenching of Prodan-actin", "result": 30, "unit": "s⁻¹"}, {"measurement": "Kd", "setting": "[2]; koff/kon, read-out: dissociation constant (Kd) from kinetic constants", "result": "~100", "unit": "nM"}, {"measurement": "actin monomer sequestering", "setting": "[3]", "result": "sequester actin monomers and raise the critical concentration for actin polymerization"}]}
